Laboratory results as given in patent US5977169A, “Substituted tetronic acids useful for treating HIV and other retroviruses” (priority 1997, dated 1999).

Molecular target: T1, HIV-1 protease (Human immunodeficiency virus type 1 group M subtype B, UniProt P04585)
T1 construct: The protease (or proteinase) enzyme, consisting of only 99 amino acids
Experiment: In vitro HIV protease inhibitory assay (fluorescently labeled substrate, avidin-polystyrene particles)
Format: biochemical
Conditions: for inhibition at 3.3 µM: HIV-1 dose 3.3 μM; for inhibition at 10 µM: HIV-1 dose 10.0 μM; for inhibition at 30 µM: HIV-1 dose 30.0 μM; for inhibition at 1 µM: HIV-1 dose 1.0 μM; for inhibition at 100 µM: HIV-1 dose 100.0 μM; for inhibition at 1.1 µM: HIV-1 dose 1.1 μM
Description: The HIV protease screening assay is based on a fluorescently labeled substrate which can be resolved from nonlabeled cleavage product using avidin-polystyrene particles, 0.7-0.9 μm. The substrate is biotinylated at the amino terminal arginine and fluorescently labeled with fluorescein isothiocynate (FITC) at the carboxyl terminal lysine. This assay has been employed to detect novel, nonpeptidic inhibitors of HIV-1 protease. Substrate (20 μl of 0.2 μM), sample (10 μl of desired concentraion), and enzyme (10 μl of 0.1 μM) are added to a 96 well pandex plate. The assay is run in 0.1 M sodium acetate buffer at pH 5.5 in the presence of 1.0 M sodium chloride and 0.05% NP-40 and incubated in the dark for one hour at room temperature. Avidin coated polystyrene beads (40 μl of 0.1% (w/v)) are added and the incubation is continued in the dark for an additional half hour. The labeled cleavage product is separated from the unreacted substrate via filtration and is read on the IDEXX Screen Machine. (IDEXX Corporation--Portland, Me.) The data are analyzed by appropriate computer algorithms to ascertain percent inhibition values.
The Activity Table showing the results of the HIV Protease Inhibitory Assay appears below in TABLE 1. The table has three columns, the left column provides the code number of the compound for easy cross reference to structure tables and detailed procedures, the middle column provides the concentration of test compound and the column on the right provides the percent inhibition.

| SMILES | inhibition at 3.3 µM | inhibition at 10 µM | inhibition at 30 µM | inhibition at 1 µM | inhibition at 100 µM | inhibition at 1.1 µM | inhibition at 3.7 µM (HIV-1 dose 3.7 μM) | inhibition at 11 µM (HIV-1 dose 11.0 μM) |
| --- | --- | --- | --- | --- | --- | --- | --- | --- |
| CCCCC(CCc1ccccc1)C1OC(=O)C(C(c2ccccc2)C2CC2)=C1O (single isomer, unassigned) [GX-1, 2(5H)-Furanone, 3-(cyclopropylphenylmethyl)-4-hydroxy-5-(1-(2-phenyl-ethyl)pentyl)-] | 74.6% | 89.2% | 74% |  |  |  |  |  |
| CCC1CCCCC12OC(=O)C(C(c1ccccc1)C1CC1)=C2O (single isomer, unassigned) [IX-33, 1-Oxaspiro[4.5]dec-3-en-2-one, 3-(cyclopropylphenylmethyl)-4-hydroxy-6-ethyl-] | 99% | 99.4% | 97.6% |  |  |  |  |  |
| O=C1OC(Cc2ccccc2)C(O)=C1C(c1ccccc1)C1CC1 (stereo not drawn) [BX-1, 5H-Furan-2-one, 5-benzyl-3-cyclopropylphenylmethyl-4-hydroxy-] |  | 80.1% |  | 18.7% | 90.5% |  |  |  |
| O=C1OC(CCc2ccccc2)C(O)=C1C(c1ccccc1)C1CC1 (stereo not drawn) [BX-2, 2(5H)-Furanone, 3(cyclopropylphenylmethyl)-4-hydroxy-5-(2-phenylethyl)-] |  | 81% |  | 47.2% | 81.4% |  |  |  |
| O=C1OC(CCCc2ccccc2)C(O)=C1C(c1ccccc1)C1CC1 (stereo not drawn) [BX-3, 2(5H)-Furanone, 3-(cyclopropylphenylmethyl)-4-hydroxy-5-(3-phenylpropyl)-] |  | 90.6% |  | 46% | 93.2% |  |  |  |
| CCCC1OC(=O)C(C(c2ccccc2)C2CC2)=C1O (stereo not drawn) [BX-4, 2(5H)-Furanone, 3-(cyclopropylphenylmethyl)-4-hydroxy-5-propyl-] |  | 61.1% |  | < 10% | 83.3% |  |  |  |
| O=C1OC(CCC2CCCCC2)C(O)=C1C(c1ccccc1)C1CC1 (stereo not drawn) [BX-5, 2(5H)-Furanone, 5-(2-cyclohexylethyl)-3-(cyclopropylphenylmethyl)-4-hydroxy-] |  | 61.2% |  | 12.6% | 71.5% |  |  |  |
| O=C1OC(CC=Cc2ccccc2)C(O)=C1C(c1ccccc1)C1CC1 (stereo not drawn) [BX-6, 2(5H)-Furanone, 3-(cyclopropylphenylmethyl)-4-hydroxy-5-(3-phenyl-2-propenyl)-] | 65.7% | 77.2% | 82.1% |  |  |  |  |  |
| O=C1OC(C(O)C=Cc2ccccc2)C(O)=C1C(c1ccccc1)C1CC1 (stereo not drawn) [BX-7, 2(5H)-Furanone, 3-(cyclopropylphenylmethyl)-4-hydroxy-5-(1-hydroxy-3--phenyl-2-propenyl)-] | < 10% | 18% | 40% |  |  |  |  |  |
| O=C1OC(C(O)CCc2ccccc2)C(O)=C1C(c1ccccc1)C1CC1 (stereo not drawn) [BX-8, 2(5H)-Furanone, 3-(cyclopropylphenylmethyl)-4-hydroxy-5-(1-hydroxy-3--phenylpropyl)-] | 51% | 73.3% | 78.2% |  |  |  |  |  |
| CCC(C1=C(O)C(Cc2ccccc2)OC1=O)c1ccccc1 (stereo not drawn) [BX-9, 2(5H)-Furanone, 4-hydroxy-5-(phenylmethyl)-3-(1-phenylpropyl)-] | 50.1% | 75.1% | 86.1% |  |  |  |  |  |
| CC(C)C1OC(=O)C(C(c2ccccc2)C2CC2)=C1O (stereo not drawn) [BX-10, 2(5H)-Furanone, 3-(cyclopropylphenylmethyl)-4-hydroxy-5-(1-methylethyl)-] | 40.5% | 74.6% | 98.6% |  |  |  |  |  |
| CCCCC1OC(=O)C(C(c2ccccc2)C2CC2)=C1O (stereo not drawn) [BX-11, 2(5H)-Furanone, 5-butyl-3-(cyclopropylphenylmethyl)-4-hydroxy-] | 45.1% | 78.3% | 93.4% |  |  |  |  |  |
| CCCC1(CCC)OC(=O)C(C(c2ccccc2)C2CC2)=C1O (stereo not drawn) [BX-12, 2(5H)-Furanone, 3-(cyclopropylphenylmethyl)-4-hydroxy-5,5-dipropyl-] | 110% | 112% | 95.3% |  |  |  |  |  |
| CC(C)C1(C(C)C)OC(=O)C(C(c2ccccc2)C2CC2)=C1O (stereo not drawn) [BX-13, 2(5H)-Furanone, 3-(cyclopropylphenylmethyl)-4-hydroxy-5,5-bis(1-methylethyl)-] | 104% | 108% |  |  |  | 94.1% |  |  |
| CCC1(CC)OC(=O)C(C(c2ccccc2)C2CC2)=C1O (stereo not drawn) [BX-14, 2(5H)-Furanone, 3-(cyclopropylphenymethyl)-5,5-diethyl-4-hydroxy-] | 92.7% | 94% | 99% |  |  |  |  |  |

| SMILES | inhibition at 3.3 µM | inhibition at 10 µM | inhibition at 30 µM | inhibition at 1 µM | inhibition at 100 µM | inhibition at 1.1 µM | inhibition at 3.7 µM (HIV-1 dose 3.7 μM) | inhibition at 11 µM (HIV-1 dose 11.0 μM) |
| --- | --- | --- | --- | --- | --- | --- | --- | --- |
| CCCCC1(CCCC)OC(=O)C(C(c2ccccc2)C2CC2)=C1O (stereo not drawn) [BX-15, 2(5H)-Furanone, 5,5-dibutyl-3-(cyclopropylphenylmethyl)-4-hydroxy-] | 115% | 118% | 122% |  |  |  |  |  |
| CCC(C1=C(O)C(CCc2ccccc2)OC1=O)c1ccccc1 (stereo not drawn) [BX-16, 2(5H)-Furanone, 4-hydroxy-5-(2-phenylethyl)-3-(1-phenylpropyl)-] | 41.4% | 71.4% | 80.3% |  |  |  |  |  |
| O=C1OC2(CCCC2)C(O)=C1C(c1ccccc1)C1CC1 (stereo not drawn) [CX-1, 1-Oxaspiro[4.4]non-3-en-2-one, 3-(cyclopropylphenylmethyl)-4-hydroxy-] |  |  |  |  | 109% |  | 109% | 115% |
| O=C1OC2(CCCCCCC2)C(O)=C1C(c1ccccc1)C1CC1 (stereo not drawn) [CX-2, 1-Oxaspiro[4.7]dodec-3-en-2-one, 3-(cyclopropylphenylmethyl)-4-hydroxy-] |  | 104% | 110% |  |  | 96% |  |  |
| CC1(CCc2ccccc2)OC(=O)C(C(c2ccccc2)C2CC2)=C1O (stereo not drawn) [CX-3, 2(5H)-Furanone, 3-(cyclopropylphenylmethyl)-4-hydroxy-5-methyl-5-(2--phenylethyl)-] | 98.1% | 111% | 118% |  |  |  |  |  |
| CCCC1(CCCc2ccccc2)OC(=O)C(C(c2ccccc2)C2CC2)=C1O (stereo not drawn) [DX-1, 2(5H)-Furanone, 3-(cyclopropylphenylmethyl)-4-hydroxy-5-(3-phenyl-propyl)-5-propyl-] | 108% | 106% | 105% |  |  |  |  |  |
| CC1(Cc2ccccc2)OC(=O)C(C(c2ccccc2)C2CC2)=C1O (stereo not drawn) [DX-2, 2(5H)-Furanone, 3-(cyclopropylphenylmethyl)-4-hydroxy-5-methyl-5-(phenyl-methyl)-] | 94.5% | 98.2% | 104% |  |  |  |  |  |
| CCC1(Cc2ccccc2)OC(=O)C(C(c2ccccc2)C2CC2)=C1O (stereo not drawn) [DX-3, 2(5H)-Furanone, 3-(cyclopropylphenylmethyl)-5-ethyl-4-hydroxy-5-(phenyl-methyl)-] | 95.5% | 103% | 105% |  |  |  |  |  |
| CCCC1(Cc2ccccc2)OC(=O)C(C(c2ccccc2)C2CC2)=C1O (stereo not drawn) [DX-4, 2(5H)-Furanone, 3-(cyclopropylphenylmethyl)-4-hydroxy-5-(phenyl-methyl)-5-propyl-] | 125% | 128% | 116% |  |  |  |  |  |
| O=C1OC(Cc2ccccc2)(Cc2ccccc2)C(O)=C1C(c1ccccc1)C1CC1 (stereo not drawn) [DX-5, 2(5H)-Furanone, 3-(cyclopropylphenylmethyl)-4-hydroxy-5,5-bis(phenylmethyl)-] | 103% | 116% | 103% |  |  |  |  |  |
| CCCC1(Cc2cccnc2)OC(=O)C(C(c2ccccc2)C2CC2)=C1O (stereo not drawn) [DX-6, 2(5H)-Furanone, 3-(cyclopropylphenylmethyl)-4-hydroxy-5-propyl-5-(3--pyridinylmethyl)-] | 103% | 102% | 104% |  |  |  |  |  |
| CCC1(CCc2ccccc2)OC(=O)C(C(c2ccccc2)C2CC2)=C1O (stereo not drawn) [DX-7, 2(5H)-Furanone, 3-(cyclopropylphenylmethyl)-5-ethyl-4-hydroxy-5-(2-phenyl-ethyl)-] | 108% | 112% | 103% |  |  |  |  |  |
| CCCC1(CCc2ccccc2)OC(=O)C(C(c2ccccc2)C2CC2)=C1O (stereo not drawn) [DX-8, 2(5H)-Furanone, 3-(cyclopropylphenylmethyl)-4-hydroxy-5-(2-phenyl-ethyl)-5-propyl-] | 114% | 109% | 103% |  |  |  |  |  |
| O=C1OC(CCc2ccccc2)(CCc2ccccc2)C(O)=C1C(c1ccccc1)C1CC1 (stereo not drawn) [DX-9, 2(5H)-Furanone, 3-(cyclopropylphenylmethyl)-4-hydroxy-5,5-bis(2-phenylethyl)-] | 86.7% | 104% | 99.8% |  |  |  |  |  |
| CC1(CCCc2ccccc2)OC(=O)C(C(c2ccccc2)C2CC2)=C1O (stereo not drawn) [DX-10, 2(5H)-Furanone, 3-(cyclopropylphenylmethyl)-4-hydroxy-5-methyl-5-(3-phenyl-propyl)-] | 112% | 104% | 91.5% |  |  |  |  |  |
| CCC1(CCCc2ccccc2)OC(=O)C(C(c2ccccc2)C2CC2)=C1O (stereo not drawn) [DX-11, 2(5H)-Furanone, 3-(cyclopropylphenylmethyl)-5-ethyl-4-hydroxy-5-(3-phenyl-propyl)-] | 101% | 111% | 105% |  |  |  |  |  |
